Laboratory results as given in patent publication US12139492B2 (Endotarget Inc., priority 2021, dated 2024).
Read-outs that look alike come from different tables or passages of the source.

Assays:
[1] = system: Mino cells; assay: Antiproliferative effect, MTS cell viability assay, Mino cells; format: cell-based; settings: Homo sapiens, Mino mantle cell lymphoma cells, read-out: IC50 (anti-proliferation) Mino cells
Summary of the method: (§1)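 Readout was MTS-derived formazan absorbance (490 nm) reflecting metabolically active cells. Treatment lasted 72 h over a 0–10 μM range (0.001, 0.01, 0.1, 1, 10 μM) in JeKo-1 and Mino B-cell malignancy cells.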

[2] = system: JeKo-1 cells; assay: Antiproliferative effect, MTS cell viability assay, JeKo-1 cells; format: cell-based; settings: Homo sapiens; JeKo-1 mantle cell lymphoma cells; read-out: IC50 (anti-proliferation) JeKO-1 cells
Summary of the method: as §1

[3] = biological target: BTK (Homo sapiens, UniProt Q06187); assay: Degradation of BTK protein in Namalwa cells (Western blot; DC50, Dmax); settings: for DC50: cell line not given
Sequence of BTK (Q06187 whole entry): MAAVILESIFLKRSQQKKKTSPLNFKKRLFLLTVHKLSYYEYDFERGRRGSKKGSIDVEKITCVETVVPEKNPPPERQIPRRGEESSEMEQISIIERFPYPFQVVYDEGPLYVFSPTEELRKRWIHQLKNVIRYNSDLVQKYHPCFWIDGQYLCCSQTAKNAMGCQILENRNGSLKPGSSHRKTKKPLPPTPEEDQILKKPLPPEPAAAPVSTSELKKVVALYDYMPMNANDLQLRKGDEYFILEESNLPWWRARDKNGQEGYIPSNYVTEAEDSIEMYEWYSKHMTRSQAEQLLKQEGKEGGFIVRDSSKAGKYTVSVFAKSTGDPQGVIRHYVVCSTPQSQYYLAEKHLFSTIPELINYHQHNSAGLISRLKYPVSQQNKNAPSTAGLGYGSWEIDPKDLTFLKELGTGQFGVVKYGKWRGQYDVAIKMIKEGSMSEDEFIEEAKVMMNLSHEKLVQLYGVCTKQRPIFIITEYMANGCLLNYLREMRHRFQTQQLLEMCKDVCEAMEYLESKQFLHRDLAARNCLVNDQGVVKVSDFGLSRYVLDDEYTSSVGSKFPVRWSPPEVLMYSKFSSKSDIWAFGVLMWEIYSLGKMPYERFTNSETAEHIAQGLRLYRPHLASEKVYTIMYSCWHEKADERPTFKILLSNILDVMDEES

[4] = read-out: DC50 (BTK degradation), concentration giving 50% reduction of BTK expression level
[5] = read-out: Dmax (BTK degradation)

SMILES	DC50 [3, 4] [µM]	Dmax [3, 5] [%]	Dmax [3] [%]	DC50 ([3]; BTK degradation) [µM]	IC50 ([1]; MINO) [µM]	IC50 [2] [µM]	IC50 [1] [µM]	degradation of BTK protein ([3]; Namalwa B lymphocyte cells, various concentrations, 24 hours, Western blot)
NC(=O)c1c(-c2ccc(Oc3ccccc3)cc2)nn2c1NCCC2C1CCN(C2CCN(CCN3CCC(c4ccc5c(c4)CN(C4CCC(=O)NC4=O)C5=O)CC3)CC2)CC1 (centres unmarked) [Compound 312, 7-(1′-(2-(4-(2-(2,6-dioxopiperidin-3-yl)-1-oxoisoindolin-5-yl)piperidin-1-yl)ethyl)-[1,4′-bipiperidin]-4-yl)-2-(4-phenoxyphenyl)-4,5,6,7-tetrahydropyrazolo[1,5-a]pyrimidine-3-carboxamide]			> 75	> 0.05	> 10	> 10		
NC(=O)c1c(-c2ccc(Oc3ccccc3)cc2)nn2c1NCC[C@H]2C1CCN(C2CCN(CCN3CCN(c4ccc5c(c4)C(=O)N(C4CCC(=O)NC4=O)C5=O)CC3)CC2)CC1 (stereo partly drawn) [Compound 323, (7S)-7-(1′-(2-(4-(2-(2,6-dioxopiperidin-3-yl)-1,3-dioxoisoindolin-5-yl)piperazin-1-yl)ethyl)-[1,4′-bipiperidin]-4-yl)-2-(4-phenoxyphenyl)-4,5,6,7-tetrahydropyrazolo[1,5-a]pyrimidine-3-carboxamide]			> 75	0.01 to 0.05	1 to 10	1 to 10		
NC(=O)c1c(-c2ccc(Oc3ccccc3)cc2)nn2c1NCC[C@H]2C1CCN(C(=O)N2CCC(CN3CCC(c4ccc5c(c4)CN(C4CCC(=O)NC4=O)C5=O)CC3)CC2)CC1 (stereo partly drawn) [Compound 296, (7S)-7-(1-(4-((4-(2-(2,6-dioxopiperidin-3-yl)-1-oxoisoindolin-5-yl)piperidin-1-yl)methyl)piperidine-1-carbonyl)piperidin-4-yl)-2-(4-phenoxyphenyl)-4,5,6,7-tetrahydropyrazolo[1,5-a]pyrimidine-3-carboxamide]			> 90	< 0.01	< 1	1 to 10		
NC(=O)c1c(-c2ccc(Oc3ccccc3)cc2)nn2c1NCC[C@H]2C1CCN(CC2CCN(C(=O)N3CCC(CC4CCN(c5ccc6c(c5)CN(C5CCC(=O)NC5=O)C6=O)CC4)CC3)CC2)CC1 (stereo partly drawn) [Compound 414, (7S)-7-(1-((1-(4-((1-(2-(2,6-dioxopiperidin-3-yl)-1-oxoisoindolin-5-yl)piperidin-4-yl)methyl)piperidine-1-carbonyl)piperidin-4-yl)methyl)piperidin-4-yl)-2-(4-phenoxyphenyl)-4,5,6,7-tetrahydropyrazolo[1,5-a]pyrimidine-3-carboxamide]	< 0.01	> 90			< 1	< 1		
Nc1ncnc2c1c(-c1ccc(Oc3ccccc3)cc1)nn2C1CCN(CC2CCN(CC3CCN(c4ccc5c(c4)CN(C4CCC(=O)NC4=O)C5=O)CC3)C2)CC1 (centres unmarked) [Compound 446, 3-(5-(4-((3-((4-(4-amino-3-(4-phenoxyphenyl)-1H-pyrazolo(3,4-d)pyrimidin-1-yl)piperidin-1-yl)methyl)pyrrolidin-1-yl)methyl)piperidin-1-yl)-1-oxoisoindolin-2-yl)piperidine-2,6-dione]	0.01 to 0.05	> 90				1 to 10	1 to 10	dose-dependent degradation

Second part, led by results:

DC50 [3, 4] [µM]	Dmax [3, 5] [%]	Dmax [3] [%]	DC50 ([3]; BTK degradation) [µM]	SMILES	IC50 ([1]; MINO) [µM]	IC50 [2] [µM]	IC50 [1] [µM]	degradation of BTK protein ([3]; Namalwa B lymphocyte cells, various concentrations, 24 hours, Western blot)
< 0.01	> 90			Nc1ncnc2c1c(-c1ccc(Oc3ccccc3)cc1)nn2C1CCN(C2CCN(CCCN3CCC(c4ccc(N5CCC(=O)NC5=O)cc4)CC3)C2)CC1 (centres unmarked) [Compound 576, 1-(4-(1-(3-(3-(4-(4-amino-3-(4-phenoxyphenyl)-1H-pyrazolo[3,4-d]pyrimidin-1-yl)piperidin-1-yl)pyrrolidin-1-yl)propyl)piperidin-4-yl)phenyl)dihydropyrimidine-2,4(1H,3H)-dione]	1 to 10	< 1		
> 0.05	> 75			Nc1ncnc2c1c(-c1ccc(Oc3ccccc3)cc1)nn2[C@@H]1CCCN(CC2CCN(C(=O)NC3CCC(=O)NC3=O)CC2)C1 (stereo partly drawn) [Compound 518, 4-(((R)-3-(4-amino-3-(4-phenoxyphenyl)-1H-pyrazolo[3,4-d]pyrimidin-1-yl)piperidin-1-yl)methyl)-N-(2,6-dioxopiperidin-3-yl)piperidine-1-carboxamide]	1 to 10	1 to 10		
0.01 to 0.05	> 75			Nc1ncnc2c1c(-c1ccc(Oc3ccccc3)cc1)nn2C1CCN(CCN2CCC(N3CCN(c4ccc5c(c4)CN(C4CCC(=O)NC4=O)C5=O)CC3)C2)CC1 (centres unmarked) [Compound 460, 3-(5-(4-(1-(2-(4-(4-amino-3-(4-phenoxyphenyl)-1H-pyrazolo[3,4-d]pyrimidin-1-yl)piperidin-1-yl)ethyl)pyrrolidin-3-yl)piperazin-1-yl)-1-oxoisoindolin-2-yl)piperidine-2,6-dione]	1 to 10	1 to 10		
0.01 to 0.05	> 90			Nc1ncnc2c1c(-c1ccc(Oc3ccccc3)cc1)nn2C1CCN(C2CCN(CCN3CCC(c4ccc(NC5CCC(=O)NC5=O)cc4)CC3)CC2)CC1 (centres unmarked) [Compound 579, 3-((4-(1-(2-(4-(4-amino-3-(4-phenoxyphenyl)-1H-pyrazolo[3,4-d]pyrimidin-1-yl)-[1,4′-bipiperidin]-1′-yl)ethyl)piperidin-4-yl)phenyl)amino)piperidine-2,6-dione]	< 1	< 1		
		> 50	> 0.05	Nc1ncnc2c1c(-c1ccc(Oc3ccccc3)cc1)nn2C1CCN(C2CCN(C(=O)N3CCN(c4ccc5c(c4)CN(C4CCC(=O)NC4=O)C5=O)CC3)CC2)CC1 (centres unmarked) [Compound 230, 3-(5-(4-(4-(4-amino-3-(4-phenoxyphenyl)-1H-pyrazolo[3,4-d]pyrimidin-1-yl)-[1,4′-bipiperidine]-1′-carbonyl)piperazin-1-yl)-1-oxoisoindolin-2-yl)piperidine-2,6-dione]	1 to 10	1 to 10		
0.01 to 0.05	> 75			Nc1ncnc2c1c(-c1ccc(Oc3ccccc3)cc1)nn2C1CCN(CCN2CCC(Sc3ccc4c(c3)C(=O)N(C3CCC(=O)NC3=O)C4=O)CC2)CC1 (centres unmarked) [Compound 471, 5-((1-(2-(4-(4-amino-3-(4-phenoxyphenyl)-1H-pyrazolo[3,4-d]pyrimidin-1-yl)piperidin-1-yl)ethyl)piperidin-4-yl)thio)-2-(2,6-dioxopiperidin-3-yl)isoindoline-1,3-dione]	1 to 10	1 to 10		
		> 90	0.01 to 0.05	Nc1ncnc2c1c(-c1ccc(Oc3ccccc3)cc1)nn2C1CCN(C2CCN(C(=O)N3CCC(N4CCC(c5ccc6c(c5)CN(C5CCC(=O)NC5=O)C6=O)CC4)CC3)CC2)CC1 (centres unmarked) [Compound 236, 3-(5-(1′-(4-(4-amino-3-(4-phenoxyphenyl)-1H-pyrazolo[3,4-d]pyrimidin-1-yl)-[1,4′-bipiperidine]-1′-carbonyl)-[1,4′-bipiperidin]-4-yl)-1-oxoisoindolin-2-yl)piperidine-2,6-dione]	1 to 10	1 to 10		
		> 75	0.01 to 0.05	Nc1ncnc2c1c(-c1ccc(Oc3ccccc3)cc1)nn2C1CCN(C2CCN(C(=O)N3CCC(CCCC4CCN(c5ccc6c(c5)CN(C5CCC(=O)NC5=O)C6=O)CC4)CC3)CC2)CC1 (centres unmarked) [Compound 266, 3-(5-(4-(3-(1-(4-(4-amino-3-(4-phenoxyphenyl)-1H-pyrazolo[3,4-d]pyrimidin-1-yl)-[1,4′-bipiperidine]-1′-carbonyl)piperidin-4-yl)propyl)piperidin-1-yl)-1-oxoisoindolin-2-yl)piperidine-2,6-dione]	1 to 10	> 10		
